Source: US20050112573A1, “Method of detecting toxic substance” (priority 2001, published 2005)

System: yeast genes (level of expressed mRNA)
Test: DNA chip analysis of expressed mRNA of yeast genes after 2 h culture with a toxic chemical substance
Assay type: cell-based, Saccharomyces cerevisiae S288C
Settings: for The level of expressed mRNA in the presence of chemical substance/ (ratio to absence of chemical substance): stress protein genes, DNA chip; for The level of expressed mRNA in the presence of chemical substance/ in its absence, gene YPR184W: yeast gene YPR184W
Summary of the method: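 S. cerevisiae S288C grown at 25° C in YPD; toxicant added at log phase at growth-inhibitory, non-lethal levels for 2 h, untreated cells as control. Poly(A) mRNA reverse-transcribed with Cy3/Cy5-dUTP, hybridized to whole-genome chip at 65° C >12 h; value is fluorescence ratio versus untreated.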

With `C[S+](C)[O-]` [(15), dimethylsulfoxide] the “The level of expressed mRNA in the presence of chemical substance/The level of expressed mRNA in the absence of chemical substance” value (yeast gene YMR314W) was 1.2, the “The level of expressed mRNA in the presence of chemical substance/The level of expressed mRNA in the absence of chemical substance” value (yeast gene YNL006W) was 0.7 and the “The level of expressed mRNA in the presence of chemical substance/The level of expressed mRNA in the absence of chemical substance” value (yeast gene YNL007C) was 0.8. The “The level of expressed mRNA in the presence of chemical substance/ (in its absence), gene YNL025C” value (yeast gene YNL025C, ratio of DNA chip fluorescence intensity to that without chemical substance) was 1.4, the “The level of expressed mRNA in the presence of chemical substance/ (ratio to absence of chemical substance)” value (yeast gene YNL064C) was 0.7 and the “The level of expressed mRNA in the presence of chemical substance/ (ratio to absence), gene YNL073W” value (yeast gene YNL073W, mitochondria-located protein genes, 2 h culture with chemical) was 0.7. The “The level of expressed mRNA in the presence of chemical substance/The level of expressed mRNA in the absence of chemical substance” value (yeast gene YNL093W) was 0.6, the “The level of expressed mRNA in the presence of chemical substance/ (in its absence), gene YNL192W” value (yeast gene YNL192W, ratio of DNA chip fluorescence intensity to that without chemical substance) was 2.1 and the “The level of expressed mRNA in the presence of chemical substance/The level of expressed mRNA in the absence of chemical substance” value (yeast gene YNL333W) was 1.0. The “The level of expressed mRNA in the presence of chemical substance/The level of expressed mRNA in the absence of chemical substance” value (yeast gene YNR010W) was 0.8, the “The level of expressed mRNA in the presence of chemical substance/The level of expressed mRNA in the absence of chemical substance” value (yeast gene YNR069C) was 1.0 and the “The level of expressed mRNA in the presence of chemical substance/ (in its absence), gene YNR072W” value (yeast gene YNR072W, ratio of DNA chip fluorescence intensity to that without chemical substance) was 1.8. The “The level of expressed mRNA in the presence of chemical substance/ (ratio to absence of chemical substance)” value (yeast gene YNR076W) was 1.1, the “The level of expressed mRNA in the presence of chemical substance/The level of expressed mRNA in the absence of chemical substance” value (yeast gene YOL013C) was 2.7 and the “The level of expressed mRNA in the presence of chemical substance/ (ratio to absence), gene YOL096C” value (yeast gene YOL096C, mitochondria-located protein genes, 2 h culture with chemical) was 1.0. The “The level of expressed mRNA in the presence of chemical substance/ (in its absence), gene YOL096C” value (yeast gene YOL096C, ratio of DNA chip fluorescence intensity to that without chemical substance) was 1.0, the “The level of expressed mRNA in the presence of chemical substance/ (in its absence), gene YOL108C” value (yeast gene YOL108C, ratio of DNA chip fluorescence intensity to that without chemical substance) was 1.5 and the “The level of expressed mRNA in the presence of chemical substance/ (in its absence), gene YOL116W” value (yeast gene YOL116W, ratio of DNA chip fluorescence intensity to that without chemical substance) was 0.7. The “The level of expressed mRNA in the presence of chemical substance/ (ratio to absence of chemical substance)” value (yeast gene YOL161C) was 1.1, the “The level of expressed mRNA in the presence of chemical substance/The level of expressed mRNA in the absence of chemical substance” value (yeast gene YOL164W) was 1.0 and the “The level of expressed mRNA in the presence of chemical substance/ (ratio to absence of chemical substance)” value (yeast gene YOR008C) was 0.9. The “The level of expressed mRNA in the presence of chemical substance/ (ratio to absence of chemical substance)” value (yeast gene YOR009W) was 0.6, the “The level of expressed mRNA in the presence of chemical substance/ (ratio to absence of chemical substance)” value (yeast gene YOR010C) was 0.6 and the “The level of expressed mRNA in the presence of chemical substance/The level of expressed mRNA in the absence of chemical substance” value (yeast gene YOR036W) was 1.2. The “The level of expressed mRNA in the presence of chemical substance/ (in its absence), gene YOR103C” value (yeast gene YOR103C, ratio of DNA chip fluorescence intensity to that without chemical substance) was 1.4, the “The level of expressed mRNA in the presence of chemical substance/The level of expressed mRNA in the absence of chemical substance” value (yeast gene YOR117W) was 1.4 and the “The level of expressed mRNA in the presence of chemical substance/The level of expressed mRNA in the absence of chemical substance” value (yeast gene YOR124C) was 1.3. The “The level of expressed mRNA in the presence of chemical substance/The level of expressed mRNA in the absence of chemical substance” value (yeast gene YOR132W) was 1.5, the “The level of expressed mRNA in the presence of chemical substance/The level of expressed mRNA in the absence of chemical substance” value (yeast gene YOR157C) was 1.9 and the “The level of expressed mRNA in the presence of chemical substance/ (in its absence), gene YOR180C” value (yeast gene YOR180C, ratio of DNA chip fluorescence intensity to that without chemical substance) was 1.1. For the same compound, the “The level of expressed mRNA in the presence of chemical substance/The level of expressed mRNA in the absence of chemical substance” value (yeast gene YOR181W) was 3.4, the “The level of expressed mRNA in the presence of chemical substance/The level of expressed mRNA in the absence of chemical substance” value (yeast gene YOR185C) was 1.0 and the “The level of expressed mRNA in the presence of chemical substance/ (in its absence), gene YOR251C” value (yeast gene YOR251C, ratio of DNA chip fluorescence intensity to that without chemical substance) was 0.6. The “The level of expressed mRNA in the presence of chemical substance/The level of expressed mRNA in the absence of chemical substance” value (yeast gene YOR259C) was 1.3, the “The level of expressed mRNA in the presence of chemical substance/The level of expressed mRNA in the absence of chemical substance” value (yeast gene YOR261C) was 1.3 and the “The level of expressed mRNA in the presence of chemical substance/The level of expressed mRNA in the absence of chemical substance” value (yeast gene YOR288C) was 1.8. For the same compound, the “The level of expressed mRNA in the presence of chemical substance/ (ratio to absence), gene YOR316C” value (yeast gene YOR316C, mitochondria-located protein genes, 2 h culture with chemical) was 1.5, the “The level of expressed mRNA in the presence of chemical substance/ (in its absence), gene YOR348C” value (yeast gene YOR348C, ratio of DNA chip fluorescence intensity to that without chemical substance) was 1.6 and the “The level of expressed mRNA in the presence of chemical substance/The level of expressed mRNA in the absence of chemical substance” value (yeast gene YOR355W) was 3.2. The “The level of expressed mRNA in the presence of chemical substance/ (in its absence), gene YOR363C” value (yeast gene YOR363C, ratio of DNA chip fluorescence intensity to that without chemical substance) was 1.1, the “The level of expressed mRNA in the presence of chemical substance/The level of expressed mRNA in the absence of chemical substance” value (yeast gene YOR383C) was 1.1 and the “The level of expressed mRNA in the presence of chemical substance/ (ratio to absence), gene YPL040C” value (yeast gene YPL040C, mitochondria-located protein genes, 2 h culture with chemical) was 1.1. The “The level of expressed mRNA in the presence of chemical substance/ (ratio to absence of chemical substance)” value (yeast gene YPL059W) was 1.0, the “The level of expressed mRNA in the presence of chemical substance/The level of expressed mRNA in the absence of chemical substance” value (yeast gene YPL089C) was 2.6 and the “The level of expressed mRNA in the presence of chemical substance/The level of expressed mRNA in the absence of chemical substance” value (yeast gene YPL109C) was 1.3. For the same compound, the “The level of expressed mRNA in the presence of chemical substance/ (ratio to absence), gene YPL134C” value (yeast gene YPL134C, mitochondria-located protein genes, 2 h culture with chemical) was 1.1, the “The level of expressed mRNA in the presence of chemical substance/ (ratio to absence of chemical substance)” value (yeast gene YPL140C) was 0.7 and the “The level of expressed mRNA in the presence of chemical substance/ (in its absence), gene YPL148C” value (yeast gene YPL148C, ratio of DNA chip fluorescence intensity to that without chemical substance) was 0.6. For the same compound, the “The level of expressed mRNA in the presence of chemical substance/The level of expressed mRNA in the absence of chemical substance” value (yeast gene YPL149W) was 0.8, the “The level of expressed mRNA in the presence of chemical substance/The level of expressed mRNA in the absence of chemical substance” value (yeast gene YPL154C) was 4.0 and the “The level of expressed mRNA in the presence of chemical substance/ (ratio to absence of chemical substance)” value (yeast gene YPL194W) was 1.4. For the same compound, the “The level of expressed mRNA in the presence of chemical substance/ (ratio to absence of chemical substance)” value (yeast gene YPR005C) was 2.7, the “The level of expressed mRNA in the presence of chemical substance/The level of expressed mRNA in the absence of chemical substance” value (yeast gene YPR103W) was 1.0 and the “The level of expressed mRNA in the presence of chemical substance/The level of expressed mRNA in the absence of chemical substance” value (yeast gene YPR108W) was 1.3. The “The level of expressed mRNA in the presence of chemical substance/ (in its absence), gene YPR165W” value (yeast gene YPR165W, ratio of DNA chip fluorescence intensity to that without chemical substance) was 0.9, the “The level of expressed mRNA in the presence of chemical substance/ in its absence, gene YPR184W” value (energy system protein genes, 2 h culture with the chemical, ratio to control without chemical) was 1.5 and the “The level of expressed mRNA in the presence of chemical substance/ in its absence, gene YPR184W” value (ratio of DNA chip fluorescence intensity to that without chemical substance) was 1.5.
